# US20250154154A1 (Relay Binney Street, 2nd Floor, priority 2020, published 2025)
# Assays:
# [1] = test system: phospho-S6RP (Ser 235/236) in RBE cells; experiment: Cellular Proliferation Protocol (cellular phospho-S6RP HTRF), RBE cells; type: cell-based; details: 6 hours treatment, RBE or SNU-1079 cells, cell line not given
# Procedure: Cellular Proliferation Protocol
# Cellular phospho-S6RP (Ser 235/236) was measured using a Fluorescence Resonance Energy Transfer (FRET) sandwich assay format (Cisbio HTRF Cat. No. 64RP6PEG). This format uses 2 different, labelled antibodies (Eu^3+-Cryptate donor and d2 acceptor) that positively modulate a specific signal in proportion to phospho-S6RP (Ser 235/236) directly in cells. RBE or SNU-1079 cells were cultivated in T-75 flasks at 37° C., 5% CO2, 95% relative humidity in RPMI 1640 medium with 10% FBS and 1% Penicillin/Streptomycin and detached with trypsin/EDTA at 80-90% confluency. Cells were then seeded in 40 μL volume per well in 384-well flat-bottom polystyrene microplates (Corning Cat. No. 3570) at a seeding density of 2000 cells/well for RBE and 3000 cells/well for SNU-1079 followed by 24 hour incubation at 37° C., 5% CO2, 95% relative humidity. On the next day, compounds were diluted to […] the indicated concentrations and 40 nL of these treatment compounds, along with DMSO vehicle control, were added to the cells (final concentration of compounds is then the indicated concentrations). Treatment was carried out for 6 hours at 37° C., 5% CO2, 95% relative humidity after which the plates were cooled to room temperature before aspirating the medium. Cells were then lysed on a shaker for 45 minutes at room temperature with 20 μL of 1× supplemented lysis buffer per well. After lysis, 5 μL of pre-mixed antibodies was added per well. Plates were covered with black sealing film and incubated overnight at room temperature on a shaker before being read on a PerkinElmer EnVision microplate reader. Percent activation was calculated relative to DMSO control and IC50 values were obtained from dose-response data fitted to a 4-parameter curve.
# RBE cells = experiment: Cell Viability Protocol (CellTiterGlo), RBE cells; type: cell-based; details: RBE or SNU-1079 cells, 72 or 120 hour, cell line and time not given
# Procedure: RBE or SNU-1079 cells were cultured in T-75 or T-175 flasks at 37° C., 5% CO2, 95% relative humidity in RPMI 1640 medium with 10% FBS and 1% Penicillin/Streptomycin (media) and detached with 0.25% trypsin/EDTA at 80-90% confluency. Cells were then seeded in 40 μL media per well in 384-well flat-bottom polystyrene microplates (Corning Cat. No. 3570) at a seeding density of 1200 cells/well and incubated for 24 hours at 37° C. with 5% CO2, 95% relative humidity. On the next day, test compounds were prepared in 10 mM DMSO stock solution and diluted to the indicated concentrations in a 384-well compound source plate. DMSO was employed as a vehicle control. Compounds (40 nL) were transferred to 384-well cell culture plate(s) using the liquid handler Echo550. Plates were incubated at 37° C. with 5% CO2 for 72 hour or 120 hour (as indicated). CellTiterGlo reagent was warmed to 37° C. and added into each well (40 μL per well). Plates were incubated at room temperature for 30 min followed by reading on the EnSpire or EnVision plate reader. Relative viability (% remaining activity) was calculated relative to DMSO control and IC50 values were obtained from dose-response data fitted to a 4-parameter curve.
# SRC = SRC (Homo sapiens, UniProt P12931); experiment: SRC Biochemical Assay Protocol (microfluidic mobility shift assay, FLPeptide4 substrate)
# Chain of SRC (P12931 whole entry, species assumed): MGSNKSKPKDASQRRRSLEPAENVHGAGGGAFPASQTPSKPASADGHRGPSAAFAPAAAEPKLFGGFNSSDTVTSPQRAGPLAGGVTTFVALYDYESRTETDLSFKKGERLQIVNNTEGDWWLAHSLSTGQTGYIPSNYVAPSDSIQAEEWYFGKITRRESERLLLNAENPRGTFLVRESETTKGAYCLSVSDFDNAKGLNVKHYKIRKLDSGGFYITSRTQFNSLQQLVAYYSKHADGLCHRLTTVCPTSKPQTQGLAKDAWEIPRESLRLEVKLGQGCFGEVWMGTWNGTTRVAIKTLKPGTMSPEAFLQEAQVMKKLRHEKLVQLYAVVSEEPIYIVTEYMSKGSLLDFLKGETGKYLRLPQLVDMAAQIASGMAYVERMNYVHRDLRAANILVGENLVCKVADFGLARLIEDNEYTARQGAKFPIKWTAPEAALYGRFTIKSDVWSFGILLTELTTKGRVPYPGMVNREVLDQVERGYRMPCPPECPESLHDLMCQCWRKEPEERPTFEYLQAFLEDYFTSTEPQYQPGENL
# Summary of the method: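 Mobility-shift readout of phosphorylated FLPeptide4 (1.5 μM) after 90 min kinase reaction with 50 μM ATP and 0.26 nM SRC in pH 7.4 HEPES buffer. Compounds, tested 0.0017–100 μM, were preincubated 30 min with enzyme and peptide; IC50 from 4-parameter logistic fit versus neutral controls.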
SMILES,IC50 [1],IC50 (RBE cells),IC50 (SRC)
C=CC(=O)N1CC[C@@H](N2CC(C#Cc3c(-c4ccc(OC(C)C)c(OC)c4)c4c(N)ncnc4n3C)C2)[C@@H](O)C1 [II-71],0.01 to 1 µM,0.01 to 1 µM,0.01 to 1 µM
C=CC(=O)N1CCC(N2CC(C#Cc3c(-c4ccc(OC5CC5)c(OC)c4)c4c(N)ncnc4n3C)C2)CC1 [II-98],0.01 to 1 µM,0.01 to 1 µM,0.01 to 1 µM
C=CC(=O)N1CC[C@@H](N2CC(C#Cc3c(-c4ccc(Cl)c(OC)c4)c4c(N)ncnc4n3C(C)C)C2)[C@@H](O)C1 [II-55],≤ 0.01 µM,0.01 to 1 µM,≤ 0.01 µM
C=CC(=O)N1C[C@@H]2[C@@H](C#Cc3c(-c4ccc(Oc5ccccc5)c(OC)c4)c4c(N)ncnc4n3C)[C@@H]2C1 [II-27],≤ 0.01 µM,≤ 0.01 µM,≤ 0.01 µM
"CC(C)n1c(C#CC2CCN(C(=O)/C=C/CN(C)C)CC2)c(-c2ccc(Oc3ccccc3)cc2)c2c(N)ncnc21 [Example I-48, (E)-1-(4-((4-amino-7-isopropyl-5-(4-phenoxyphenyl)-7H-pyrrolo[2,3-d]pyrimidin-6-yl)ethynyl)piperidin-1-yl)-4-(dimethylamino)but-2-en-1-one]",–,0.01 to 1 µM,0.01 to 1 µM
"COCCN(C)C/C=C/C(=O)N1C[C@@H]2[C@@H](C#Cc3c(-c4ccc(Oc5ccccn5)c(OC)c4)c4c(N)ncnc4n3C)[C@@H]2C1 [II-231, (E)-1-((1R,5S,6s)-6-((4-amino-5-(3-methoxy-4-(pyridin-2-yloxy)phenyl)-7-methyl-7H-pyrrolo[2,3-d]pyrimidin-6-yl)ethynyl)-3-azabicyclo[3.1.0]hexan-3-yl)-4-((2-methoxyethyl) (methyl)amino) but-2-en-1-one]",–,0.01 to 1 µM,0.01 to 1 µM
CC(C)n1c(C#CC2CCN(C(=O)CCl)CC2)c(-c2ccc(Oc3ccccc3)cc2)c2c(N)ncnc21 [Example I-29],–,0.01 to 1 µM,0.01 to 1 µM
"C=CC(=O)N1CCC(C#Cc2c(-c3ccc(Oc4ccccc4)cc3)c3c(N)ncnc3n2C(C)C)CC1 [Example I-8, 1-(4-((4-amino-7-isopropyl-5-(4-phenoxyphenyl)-7H-pyrrolo[2,3-d]pyrimidin-6-yl)ethynyl)piperidin-1-yl)prop-2-en-1-one]",–,0.01 to 1 µM,0.01 to 1 µM
"CC(C)n1c(C#CC2CCN(CCO)CC2)c(-c2ccc(Oc3ccccc3)cc2)c2c(N)ncnc21 [II-147, 2-(4-((4-amino-7-isopropyl-5-(4-phenoxyphenyl)-7H-pyrrolo[2,3-d]pyrimidin-6-yl)ethynyl)piperidin-1-yl)ethanol]",–,0.01 to 1 µM,≤ 0.01 µM
C=CC(=O)N1CCC(C#Cc2c(-c3ccc(Oc4ccccc4)cc3)c3c(N)ncnc3n2C2CC(O)C2)CC1 (stereo not drawn) [Example I-69],–,0.01 to 1 µM,0.01 to 1 µM
C=CC(=O)N1CCC(C#Cc2c(-c3ccc(Oc4ccccc4F)cc3)c3c(N)ncnc3n2C2CCOC2)CC1 (stereo not drawn) [Example I-62],–,0.01 to 1 µM,0.01 to 1 µM
C=CC(=O)N1CCC(C#Cc2cn3ncnc(N)c3c2-c2ccc(Oc3ccccc3)cc2)CC1 [Example I-64],–,1 to 10 µM,0.01 to 1 µM
"COc1cc(Oc2cccc(C)n2)ccc1-c1c(C#C[C@@H]2[C@H]3CN(C(=O)/C=C/CN4CCC(F)C4)C[C@@H]23)n(C)c2ncnc(N)c12 (stereo partly drawn) [II-236, (E)-1-((1R,5S,6s)-6-((4-amino-5-(2-methoxy-4-((6-methylpyridin-2-yl)oxy)phenyl)-7-methyl-7H-pyrrolo[2,3-d]pyrimidin-6-yl)ethynyl)-3-azabicyclo[3.1.0]hexan-3-yl)-4-(3-fluoropyrrolidin-1-yl)but-2-en-1-one]",–,0.01 to 1 µM,0.01 to 1 µM
"CC(C)n1c(C#CC2CCN(S(C)(=O)=O)CC2)c(-c2ccc(Oc3ccccc3)cc2)c2c(N)ncnc21 [II-140, 7-isopropyl-6-((1-(methylsulfonyl)piperidin-4-yl)ethynyl)-5-(4-phenoxyphenyl)-7H-pyrrolo[2,3-d]pyrimidin-4-amine]",–,0.01 to 1 µM,0.01 to 1 µM
C=CC(=O)N1CC[C@H](N2CC(C#Cc3c(-c4ccc(Cl)c(OC)c4)c4c(N)ncnc4n3C)C2)[C@H](O)C1,0.01 to 1 µM,–,≤ 0.01 µM
"C=CC(=O)NCC#Cc1c(-c2ccc(Oc3ccccc3)cc2)c2c(N)ncnc2n1C [II-162, N-(3-(4-amino-7-methyl-5-(4-phenoxyphenyl)-7H-pyrrolo[2,3-d]pyrimidin-6-yl)prop-2-yn-1-yl)acrylamide]",–,0.01 to 1 µM,0.01 to 1 µM
"CC(CO)N1CCC(C#Cc2c(-c3ccc(Oc4ccccc4)cc3)c3c(N)ncnc3n2C(C)C)CC1 (stereo not drawn) [II-146, 2-(4-((4-amino-7-isopropyl-5-(4-phenoxyphenyl)-7H-pyrrolo[2,3-d]pyrimidin-6-yl)ethynyl)piperidin-1-yl)propan-1-ol]",–,0.01 to 1 µM,≤ 0.01 µM
CN(C)C/C=C/C(=O)N1CC(C#Cc2c(-c3ccc(Oc4ccccc4)cc3)c3c(N)ncnc3n2C2CCOC2)C1 (stereo not drawn) [Example I-67],–,0.01 to 1 µM,0.01 to 1 µM
COc1cc(-c2c(C#C[C@@H]3[C@H]4CN(C(=O)/C=C/CN5CCC(F)C5)C[C@@H]34)n(C)c3ncnc(N)c23)ccc1Oc1ccccn1 (stereo partly drawn) [II-47],–,0.01 to 1 µM,0.01 to 1 µM
C=CC(=O)N1CCC(O)(C#Cc2c(-c3ccc(Oc4ccccc4)cc3)c3c(N)ncnc3n2C)CC1 [Example I-63],–,0.01 to 1 µM,0.01 to 1 µM
C=CC(=O)N1CCC(C#Cc2c(-c3ccc(Oc4ccccc4)cc3)c3c(N)ncnc3n2C(C)c2ncon2)CC1 (stereo not drawn) [Example I-59],–,0.01 to 1 µM,0.01 to 1 µM
CC(C)n1c(C#CC2CN(C(=O)CCl)C2)c(-c2ccc(Oc3ccccc3)cc2)c2c(N)ncnc21 [Example I-6],–,0.01 to 1 µM,≤ 0.01 µM
C=CC(=O)N1CCC(C#Cc2c(-c3ccc(Oc4ccccc4)cc3)c3c(N)ncnc3n2C2CCCNC2)CC1 (stereo not drawn) [Example I-60],–,0.01 to 1 µM,0.01 to 1 µM
"Cn1c(C#C[C@@H]2[C@H]3CN(C(=O)/C=C/CN4CCC(F)C4)C[C@@H]23)c(-c2ccc(Oc3ccccc3)cc2)c2c(N)ncnc21 (stereo partly drawn) [II-225, (E)-1-((1R,5S,6s)-6-((4-amino-7-methyl-5-(4-phenoxyphenyl)-7H-pyrrolo[2,3-d]pyrimidin-6-yl)ethynyl)-3-azabicyclo[3.1.0]hexan-3-yl)-4-(3-fluoropyrrolidin-1-yl)but-2-en-1-one]",–,0.01 to 1 µM,0.01 to 1 µM
Cc1cccc(Oc2ccc(-c3c(C#C[C@@H]4[C@H]5CN(C(=O)/C=C/CN(C)C)C[C@@H]45)n(C)c4ncnc(N)c34)cc2)n1 [II-46],–,0.01 to 1 µM,0.01 to 1 µM
"CC(C)n1c(C#CC2CCN(Cc3ccccc3)CC2)c(-c2ccc(Oc3ccccc3)cc2)c2c(N)ncnc21 [II-145, 6-((1-benzylpiperidin-4-yl)ethynyl)-7-isopropyl-5-(4-phenoxyphenyl)-7H-pyrrolo[2,3-d]pyrimidin-4-amine]",–,1 to 10 µM,0.01 to 1 µM
C=CC(=O)NC1CC(C#Cc2c(-c3ccc(Oc4ccccc4)cc3)c3c(N)ncnc3n2C2CCOC2)C1 (stereo not drawn) [Example I-71],–,≤ 0.01 µM,0.01 to 1 µM
"COCCN(C)C/C=C/C(=O)N1C[C@@H]2[C@@H](C#Cc3c(-c4ccc(Oc5ccccc5)cc4)c4c(N)ncnc4n3C)[C@@H]2C1 [II-224, (E)-1-((1R,5S,6s)-6-((4-amino-7-methyl-5-(4-phenoxyphenyl)-7H-pyrrolo[2,3-d]pyrimidin-6-yl)ethynyl)-3-azabicyclo[3.1.0]hexan-3-yl)-4-((2-methoxyethyl) (methyl)amino)but-2-en-1-one]",–,0.01 to 1 µM,0.01 to 1 µM
